Laboratory results taken from patent publication US20100048555A1, “IMIDAZOTHIAZOLE DERIVATIVES AS MARK INHIBITORS” (priority 2006, published 2010).

The compounds below were run against T1, MARK3 (Homo sapiens, UniProt P27448) (assay: MARK 3 Assay (HTRF, Cdc25C biotinylated peptide substrate)). Conditions: recombinant MARK3 enzyme, 10 μM ATP, 1 μM peptide substrate.
T1 construct: purchased University of Dundee
Assay type: biochemical
Method: MARK3 activity was assayed in vitro using a Cdc25C biotinylated peptide substrate (Cell Signalling Technologies). The phosphopeptide product was quantitated using a Homogenous Time-Resolved Fluorescence (HTRF) assay system (Park et al., 1999, Anal. Biochem. 269:94-104). The reaction mixture contained 50 mM HEPES/Tris-HCl, pH 7.4; 10 mM NaCl, 5 mM MgCl2, 0.2 mM NaVO4, 5 mM β-glycerol phosphate, 0.1% Tween-20, 2 mM dithiothreitol, 0.1% BSA, 10 μM ATP, 1 μM peptide substrate, and 10 nM recombinant MARK3 enzyme (University of Dundee) in a final volume of 12 μl. The buffer additionally contained protease inhibitor cocktail (Roche EDTA-free, 1 tab per 50 ml). The kinase reaction was incubated for 2 hours at 25° C., and then terminated with 3 μl Stop/Detection Buffer (50 mM HEPES, pH 7.0, 16.6 mM EDTA, 0.5M KF, 0.1% Tween-20, 0.1% BSA, 2 μg/ml SLX^ent 665 (CISBIO), and 2 μg/ml Eu^3+ cryptate label antibody (CISBIO)). The reaction was allowed to equilibrate overnight at 0° C., and relative fluorescent units were read on an HTRF enabled plate reader (e.g. TECAN GENios Pro). Inhibitor compounds were assayed in the reaction described above to determine compound IC50s. Aliquots of compound dissolved in DMSO were added to the reaction wells in a third-log dilution series covering a range of 1 nM to 10 μM. Relative phospho substrate formation, read as HTRF fluorescence units, was measured over the range of compound concentrations and a titration curve generated.

T1 sequence (P27448 whole entry, species assumed): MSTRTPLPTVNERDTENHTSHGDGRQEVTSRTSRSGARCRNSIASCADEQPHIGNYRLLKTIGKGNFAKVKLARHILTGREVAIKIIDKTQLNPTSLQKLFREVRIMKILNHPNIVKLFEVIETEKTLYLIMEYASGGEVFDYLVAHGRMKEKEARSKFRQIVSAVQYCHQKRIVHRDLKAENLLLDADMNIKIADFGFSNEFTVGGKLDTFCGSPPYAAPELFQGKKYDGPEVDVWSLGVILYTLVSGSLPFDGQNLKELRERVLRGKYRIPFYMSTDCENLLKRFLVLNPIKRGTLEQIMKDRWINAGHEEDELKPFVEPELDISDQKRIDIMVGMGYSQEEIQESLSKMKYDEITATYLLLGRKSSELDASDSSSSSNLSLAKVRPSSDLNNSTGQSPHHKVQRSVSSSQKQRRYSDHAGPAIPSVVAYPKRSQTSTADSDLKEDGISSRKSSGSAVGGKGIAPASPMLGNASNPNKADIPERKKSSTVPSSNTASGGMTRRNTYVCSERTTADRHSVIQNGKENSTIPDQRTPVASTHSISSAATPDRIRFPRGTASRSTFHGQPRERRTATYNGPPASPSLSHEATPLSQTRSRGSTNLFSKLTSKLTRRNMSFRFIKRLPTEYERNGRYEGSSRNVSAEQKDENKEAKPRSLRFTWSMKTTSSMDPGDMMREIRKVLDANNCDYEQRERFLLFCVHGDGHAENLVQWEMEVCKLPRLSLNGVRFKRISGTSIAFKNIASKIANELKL

| SMILES | IC50 [nM] |
| --- | --- |
| O=C(Nc1ncn2c(C(F)(F)F)csc12)c1ccc(CO)cc1 [Example 14, 4-(Hydroxymethyl)-N-[3-(trifluoromethyl)imidazo[5,1-b][1,3]thiazol-7-yl]benzamide] | 100 to 500 |
| O=C(Nc1ncn2c(C(F)(F)F)csc12)c1ccc(CN2CCOCC2)cc1 [Example 16, 4-(Morpholin-4-ylmethyl)-N-[3-(trifluoromethyl)imidazo[5,1-b][1,3]thiazol-7-yl]benzamide] | 100 to 500 |
| CN1CCN(Cc2ccc(C(=O)Nc3ncn4c(C(F)(F)F)csc34)cc2)CC1 [Example 18, 4-[(4-methylpiperazin-1-yl)methyl]-N-[3-(trifluoromethyl)imidazo[5,1-b][1,3]thiazol-7-yl]benzamide] | 100 to 500 |
| O=C(Nc1ncn2c(C(F)(F)F)csc12)c1ccc(F)cc1 [Example 1, 4-Fluoro-N-[3-(trifluoromethyl)imidazo[5,1-b][1,3]thiazol-7-yl]benzamide] | 100 to 500 |
| O=C(Nc1ncn2c(C(F)(F)F)csc12)c1ccc(CN2CCCCC2)cc1 [Example 17, 4-(Piperidin-1-ylmethyl)-N-[3-(trifluoromethyl)imidazo[5,1-b][1,3]thiazol-7-yl]benzamide] | 100 to 500 |
| CN1CCN(c2ccc(C(=O)Nc3ncn4c(C(F)(F)F)csc34)cc2)CC1 [Example 8, 4-(4-Methylpiperazin-1-yl)-N-[3-(trifluoromethyl)imidazo[5,1-b][1,3]thiazol-7-yl]benzamide] | < 100 |
| O=C(Nc1ncn2c(C(F)(F)F)csc12)c1ccc(N2CCOCC2)cc1 [Example 9] | 100 to 500 |
| O=C(Nc1ncn2c(C(F)(F)F)csc12)c1ccc(OCCN2CCCCC2)cc1 [Example 12, 4-(2-Piperidin-1-ylethoxy)-N-[3-(trifluoromethyl)imidazo[5,1-b][1,3]thiazol-7-yl]benzamide] | < 100 |
| O=C(Nc1ncn2c(C(F)(F)F)csc12)c1ccc(Cl)cc1 [Example 7, 4-Chloro-N-[3-(trifluoromethyl)imidazo[5,1-b][1,3]thiazol-7-yl]benzamide] | 100 to 500 |

Same assay, conditions: recombinant MARK3 enzyme, 10 μM ATP, range given with mixed units (500 nM to 1 μM), units kept in the value

| SMILES | IC50 [nM] |
| --- | --- |
| O=C(Nc1ncn2c(C(F)(F)F)csc12)c1ccc(CO)cc1 [Example 14, 4-(Hydroxymethyl)-N-[3-(trifluoromethyl)imidazo[5,1-b][1,3]thiazol-7-yl]benzamide] | 500 to 1000 |
| O=C(Nc1ncn2c(C(F)(F)F)csc12)c1cccc(OCCN2CCCCC2)c1 [Example 13, 3-(2-Piperidin-1-ylethoxy)-N-[3-(trifluoromethyl)imidazo[5,1-b][1,3]thiazol-7-yl]benzamide] | 500 to 1000 |
| O=C(Nc1ncn2c(C(F)(F)F)csc12)c1ccc(O)cc1 [Example 2, 4-Hydroxy-N-[3-(trifluoromethyl)imidazo[5,1-b][1,3]thiazol-7-yl]benzamide] | 500 to 1000 |
| CN1CCN(c2ccc(C(=O)Nc3ncn4c(C(F)(F)F)csc34)cn2)CC1 [Example 19, 6-(4-methylpiperazin-1-yl)-N-[3-(trifluoromethyl)imidazo[5,1-b][1,3]thiazol-7-yl]nicotinamide] | 500 to 1000 |
